Data reported in US20250101023A1, “HETEROARYL DERIVATIVE AND USES THEREOF” (IUCF-HYU (INDUSTRY-UNIVERSITY COOPERATION FOUNDATION …, priority 2022, published 2025).

How the values were obtained:
P38a/MAPK14 = P38a/MAPK14 (Homo sapiens (Human), UniProt Q16539); test: Kinome-wide profiling; type: biochemical; conditions: read-out: % Residual Activity (mean)
PRKX = PRKX (Homo sapiens (Human), UniProt P51817); test: Kinome-wide profiling; type: biochemical; conditions: read-out: % Residual Activity (mean)
PRKX, sequence (P51817 whole entry): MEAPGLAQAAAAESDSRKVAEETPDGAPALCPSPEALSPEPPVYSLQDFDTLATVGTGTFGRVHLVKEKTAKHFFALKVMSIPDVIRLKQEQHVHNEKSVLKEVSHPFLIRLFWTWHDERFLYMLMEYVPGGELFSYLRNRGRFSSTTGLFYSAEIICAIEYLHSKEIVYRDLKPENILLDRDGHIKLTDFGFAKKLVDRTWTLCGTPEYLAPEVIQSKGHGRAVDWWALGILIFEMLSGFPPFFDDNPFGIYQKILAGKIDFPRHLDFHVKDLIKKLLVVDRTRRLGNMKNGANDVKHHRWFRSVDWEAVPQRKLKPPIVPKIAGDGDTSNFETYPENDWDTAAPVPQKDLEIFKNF

FGFR1 = FGFR1 (Homo sapiens (Human), UniProt P11362); test: Kinome-wide profiling; type: biochemical; conditions: read-out: % Residual Activity (mean)
BRSK2 = BRSK2 (Homo sapiens (Human), UniProt Q8IWQ3); test: Kinome-wide profiling; type: biochemical; conditions: read-out: % Residual Activity (mean)
BRSK1 = BRSK1 (Homo sapiens (Human), UniProt Q8TDC3); test: Kinome-wide profiling; type: biochemical; conditions: read-out: % Residual Activity (mean)
DYRK1B = DYRK1B (Homo sapiens (Human), UniProt Q9Y463); test: Kinome-wide profiling; type: biochemical; conditions: read-out: % Residual Activity (mean)
DYRK1B, sequence (Q9Y463 whole entry): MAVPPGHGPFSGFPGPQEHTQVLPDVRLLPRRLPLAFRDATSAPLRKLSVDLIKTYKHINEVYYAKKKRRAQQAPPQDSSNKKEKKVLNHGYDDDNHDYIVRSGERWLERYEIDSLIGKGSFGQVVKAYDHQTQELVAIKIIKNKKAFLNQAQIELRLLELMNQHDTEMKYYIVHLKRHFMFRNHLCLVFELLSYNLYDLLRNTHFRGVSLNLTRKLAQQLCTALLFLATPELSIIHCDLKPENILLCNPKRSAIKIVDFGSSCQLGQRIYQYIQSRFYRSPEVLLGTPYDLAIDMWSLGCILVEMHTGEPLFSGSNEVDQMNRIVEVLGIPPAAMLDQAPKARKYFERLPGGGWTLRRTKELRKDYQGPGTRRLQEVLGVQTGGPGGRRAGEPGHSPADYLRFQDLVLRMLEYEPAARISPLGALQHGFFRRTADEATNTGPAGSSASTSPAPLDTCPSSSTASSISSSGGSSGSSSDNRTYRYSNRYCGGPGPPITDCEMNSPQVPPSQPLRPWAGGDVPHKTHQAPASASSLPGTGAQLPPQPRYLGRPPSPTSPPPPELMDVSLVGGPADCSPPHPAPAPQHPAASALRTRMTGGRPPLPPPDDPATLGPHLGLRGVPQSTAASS

CDK6/cyclin D3 = CDK6/cyclin D3 (Homo sapiens (Human), UniProt Q00534); test: Kinome-wide profiling; type: biochemical; conditions: read-out: % Residual Activity (mean)
GSK3b = GSK3b (Homo sapiens (Human), UniProt P49841); test: Kinome-wide profiling; type: biochemical; conditions: read-out: % Residual Activity (mean)
DDR1 = DDR1 (Homo sapiens (Human), UniProt Q08345); test: Kinome-wide profiling; type: biochemical; conditions: read-out: % Residual Activity (mean)
IRR/INSRR = IRR/INSRR (Homo sapiens (Human), UniProt P14616); test: Kinome-wide profiling; type: biochemical; conditions: read-out: % Residual Activity (mean)
MEKK3 = MEKK3 (Homo sapiens (Human), UniProt Q99759); test: Kinome-wide profiling; type: biochemical; conditions: read-out: % Residual Activity (mean)
CDK4/cyclin D2 = CDK4/cyclin D2 (Homo sapiens (Human), UniProt P11802); test: Kinome-wide profiling; type: biochemical; conditions: read-out: % Residual Activity (mean)
CDK4/cyclin D2, sequence (P11802 whole entry): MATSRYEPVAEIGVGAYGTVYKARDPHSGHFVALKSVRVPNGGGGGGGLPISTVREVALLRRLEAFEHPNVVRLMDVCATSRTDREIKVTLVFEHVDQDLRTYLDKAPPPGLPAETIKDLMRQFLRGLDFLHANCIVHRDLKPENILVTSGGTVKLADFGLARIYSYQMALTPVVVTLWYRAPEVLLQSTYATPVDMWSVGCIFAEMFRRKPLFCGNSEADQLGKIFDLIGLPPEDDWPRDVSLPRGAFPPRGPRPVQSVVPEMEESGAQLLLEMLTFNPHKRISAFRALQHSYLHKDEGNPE
CDK4/cyclin D2, sequence (P30279 whole entry partner): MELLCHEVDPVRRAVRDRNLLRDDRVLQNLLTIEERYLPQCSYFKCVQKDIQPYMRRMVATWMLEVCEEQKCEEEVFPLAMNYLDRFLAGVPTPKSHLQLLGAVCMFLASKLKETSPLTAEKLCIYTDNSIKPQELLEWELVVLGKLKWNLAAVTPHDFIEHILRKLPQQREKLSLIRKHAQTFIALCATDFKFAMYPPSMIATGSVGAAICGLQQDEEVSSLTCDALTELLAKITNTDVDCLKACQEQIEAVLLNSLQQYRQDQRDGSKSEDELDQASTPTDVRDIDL

GSK3a = GSK3a (Homo sapiens (Human), UniProt P49840); test: Kinome-wide profiling; type: biochemical; conditions: read-out: % Residual Activity (mean)
IRAK4 = IRAK4 (Homo sapiens (Human), UniProt Q9NWZ3); test: Kinome-wide profiling; type: biochemical; conditions: read-out: % Residual Activity (mean)
IRAK4, sequence (Q9NWZ3 whole entry): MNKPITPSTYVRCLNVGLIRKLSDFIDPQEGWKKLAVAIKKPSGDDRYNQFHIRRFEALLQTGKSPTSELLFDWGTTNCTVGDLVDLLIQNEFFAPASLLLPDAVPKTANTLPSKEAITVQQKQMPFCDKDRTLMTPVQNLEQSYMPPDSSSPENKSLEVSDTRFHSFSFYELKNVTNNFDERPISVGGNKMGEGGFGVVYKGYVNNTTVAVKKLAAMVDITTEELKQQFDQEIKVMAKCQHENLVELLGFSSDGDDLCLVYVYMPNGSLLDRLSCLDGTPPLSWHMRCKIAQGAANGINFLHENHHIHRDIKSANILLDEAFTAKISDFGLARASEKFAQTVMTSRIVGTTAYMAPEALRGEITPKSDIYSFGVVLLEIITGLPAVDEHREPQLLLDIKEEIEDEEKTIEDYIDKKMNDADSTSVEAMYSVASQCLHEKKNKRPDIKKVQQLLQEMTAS

CDC7/DBF4 = CDC7/DBF4 (Homo sapiens (Human), UniProt O00311); test: Kinome-wide profiling; type: biochemical; conditions: read-out: % Residual Activity (mean)
CDC7/DBF4, sequence (O00311 whole entry): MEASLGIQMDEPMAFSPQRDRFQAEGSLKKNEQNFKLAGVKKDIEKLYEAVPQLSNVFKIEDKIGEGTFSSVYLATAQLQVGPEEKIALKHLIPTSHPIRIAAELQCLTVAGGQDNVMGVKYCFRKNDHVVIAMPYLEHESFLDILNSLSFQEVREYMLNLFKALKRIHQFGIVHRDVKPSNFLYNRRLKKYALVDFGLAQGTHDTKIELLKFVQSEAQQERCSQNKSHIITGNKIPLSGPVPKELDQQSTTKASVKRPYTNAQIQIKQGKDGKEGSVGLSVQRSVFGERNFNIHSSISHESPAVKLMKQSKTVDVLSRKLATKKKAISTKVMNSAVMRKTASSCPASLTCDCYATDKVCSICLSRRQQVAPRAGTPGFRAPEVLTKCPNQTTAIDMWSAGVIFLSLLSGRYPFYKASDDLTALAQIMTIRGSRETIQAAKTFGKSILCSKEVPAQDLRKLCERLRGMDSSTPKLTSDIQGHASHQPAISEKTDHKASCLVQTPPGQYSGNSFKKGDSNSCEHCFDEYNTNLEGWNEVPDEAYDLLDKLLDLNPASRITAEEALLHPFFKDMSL
CDC7/DBF4, sequence (Q9UBU7 whole entry partner): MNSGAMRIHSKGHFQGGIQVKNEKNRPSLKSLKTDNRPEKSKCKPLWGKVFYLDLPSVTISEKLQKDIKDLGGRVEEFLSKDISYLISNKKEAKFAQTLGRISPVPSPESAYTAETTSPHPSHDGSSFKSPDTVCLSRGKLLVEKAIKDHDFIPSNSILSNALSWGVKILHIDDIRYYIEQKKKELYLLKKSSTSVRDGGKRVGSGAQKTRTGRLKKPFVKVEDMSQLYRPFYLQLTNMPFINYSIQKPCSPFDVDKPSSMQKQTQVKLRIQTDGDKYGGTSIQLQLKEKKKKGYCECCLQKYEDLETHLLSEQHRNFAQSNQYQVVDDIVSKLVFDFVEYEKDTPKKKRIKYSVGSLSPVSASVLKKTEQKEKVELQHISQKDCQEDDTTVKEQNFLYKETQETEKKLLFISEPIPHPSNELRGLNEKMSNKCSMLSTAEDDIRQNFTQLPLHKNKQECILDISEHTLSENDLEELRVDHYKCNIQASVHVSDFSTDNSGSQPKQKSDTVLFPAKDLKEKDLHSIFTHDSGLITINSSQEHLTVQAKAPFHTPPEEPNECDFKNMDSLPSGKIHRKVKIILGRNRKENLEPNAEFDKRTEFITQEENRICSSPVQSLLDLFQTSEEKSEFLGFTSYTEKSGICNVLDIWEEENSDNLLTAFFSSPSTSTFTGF

DCAMKL2 = DCAMKL2 (Homo sapiens (Human), UniProt Q8N568); test: Kinome-wide profiling; type: biochemical; conditions: read-out: % Residual Activity (mean)
IKKe/IKBKE = IKKe/IKBKE (Homo sapiens (Human), UniProt Q14164); test: Kinome-wide profiling; type: biochemical; conditions: read-out: % Residual Activity (mean)
MKK4 = MKK4 (Homo sapiens (Human), UniProt P45985); test: Kinome-wide profiling; type: biochemical; conditions: read-out: % Residual Activity (mean)
BLK = BLK (Homo sapiens (Human), UniProt P51451); test: Kinome-wide profiling; type: biochemical; conditions: read-out: % Residual Activity (mean)
BLK, sequence (P51451 whole entry): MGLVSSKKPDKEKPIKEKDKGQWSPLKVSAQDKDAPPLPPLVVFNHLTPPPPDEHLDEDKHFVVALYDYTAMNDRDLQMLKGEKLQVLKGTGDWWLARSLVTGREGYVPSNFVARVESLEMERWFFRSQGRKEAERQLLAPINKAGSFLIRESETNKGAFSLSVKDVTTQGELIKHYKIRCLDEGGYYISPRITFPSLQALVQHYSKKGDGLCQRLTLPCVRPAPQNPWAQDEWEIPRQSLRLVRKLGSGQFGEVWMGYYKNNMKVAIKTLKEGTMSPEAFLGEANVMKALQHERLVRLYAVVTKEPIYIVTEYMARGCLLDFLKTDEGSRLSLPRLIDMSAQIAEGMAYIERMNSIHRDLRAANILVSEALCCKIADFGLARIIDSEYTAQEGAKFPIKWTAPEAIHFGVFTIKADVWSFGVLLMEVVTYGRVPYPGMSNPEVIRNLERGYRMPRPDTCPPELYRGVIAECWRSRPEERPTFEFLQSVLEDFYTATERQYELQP

RSK4 = RSK4 (Homo sapiens (Human), UniProt Q9UK32); test: Kinome-wide profiling; type: biochemical; conditions: read-out: % Residual Activity (mean)
SGK2 = SGK2 (Homo sapiens (Human), UniProt Q9HBY8); test: Kinome-wide profiling; type: biochemical; conditions: read-out: % Residual Activity (mean)
CYP2C9 = CYP2C9 (Homo sapiens (Human), UniProt P11712); test: CYP inhibitory activity; type: in vitro ADME; conditions: read-out: CYP % activity at 10 μM concentration 2C9
Method: (§1) 5 derivatives were evaluated for in vitro metabolic stability in liver microsomes from three different species (human, dog, mouse) and for inhibitory activity against 5 representative cytochrome P450 enzymes (CYPs)(Table 3). In terms of liver microsomal stability, the 2′-pyridyl group is more suitable than the α-methyl-4′-pyridyl group as the terminal aromatic group at position 6, and the aminopyrimidyl group is better than the aminopyridyl group as a substituent at position 2.

CYP2C19 = CYP2C19 (Homo sapiens (Human), UniProt P33261); test: CYP inhibitory activity; type: in vitro ADME; conditions: read-out: CYP % activity at 10 μM concentration 2C19
Method: as §1

CYP2D6 = CYP2D6 (Homo sapiens (Human), UniProt P10635); test: CYP inhibitory activity; type: in vitro ADME; conditions: read-out: CYP % activity at 10 μM concentration 2D6
Method: as §1

CYP3A4 = CYP3A4 (Homo sapiens (Human), UniProt P08684); test: CYP inhibitory activity; type: in vitro ADME; conditions: read-out: CYP % activity at 10 μM concentration 3A4
Method: as §1

CLK4 = CLK4 (Homo sapiens (Human), UniProt Q9HAZ1); test: Kinome-wide profiling; type: biochemical; conditions: read-out: % Residual Activity (mean)
SIK2 = SIK2 (Homo sapiens (Human), UniProt Q9H0K1); test: Kinome-wide profiling; type: biochemical; conditions: read-out: % Residual Activity (mean)
ROCK1 = ROCK1 (Homo sapiens (Human), UniProt Q13464); test: Kinome-wide profiling; type: biochemical; conditions: read-out: % Residual Activity (mean)
ULK1 = ULK1 (Homo sapiens (Human), UniProt O75385); test: Kinome-wide profiling; type: biochemical; conditions: read-out: % Residual Activity (mean)
PIM1 = PIM1 (Homo sapiens (Human), UniProt P11309); test: Kinome-wide profiling; type: biochemical; conditions: read-out: % Residual Activity (mean)
CDK7/cyclin H = CDK7/cyclin H (Homo sapiens (Human), UniProt P50613); test: Kinome-wide profiling; type: biochemical; conditions: read-out: % Residual Activity (mean)
PHKg2 = PHKg2 (Homo sapiens (Human), UniProt P15735); test: Kinome-wide profiling; type: biochemical; conditions: read-out: % Residual Activity (mean)
GRK6 = GRK6 (Homo sapiens (Human), UniProt P43250); test: Kinome-wide profiling; type: biochemical; conditions: read-out: % Residual Activity (mean)
MSSK1/STK23 = MSSK1/STK23 (Homo sapiens (Human), UniProt Q9UPE1); test: Kinome-wide profiling; type: biochemical; conditions: read-out: % Residual Activity (mean)
MSSK1/STK23, sequence (Q9UPE1 whole entry): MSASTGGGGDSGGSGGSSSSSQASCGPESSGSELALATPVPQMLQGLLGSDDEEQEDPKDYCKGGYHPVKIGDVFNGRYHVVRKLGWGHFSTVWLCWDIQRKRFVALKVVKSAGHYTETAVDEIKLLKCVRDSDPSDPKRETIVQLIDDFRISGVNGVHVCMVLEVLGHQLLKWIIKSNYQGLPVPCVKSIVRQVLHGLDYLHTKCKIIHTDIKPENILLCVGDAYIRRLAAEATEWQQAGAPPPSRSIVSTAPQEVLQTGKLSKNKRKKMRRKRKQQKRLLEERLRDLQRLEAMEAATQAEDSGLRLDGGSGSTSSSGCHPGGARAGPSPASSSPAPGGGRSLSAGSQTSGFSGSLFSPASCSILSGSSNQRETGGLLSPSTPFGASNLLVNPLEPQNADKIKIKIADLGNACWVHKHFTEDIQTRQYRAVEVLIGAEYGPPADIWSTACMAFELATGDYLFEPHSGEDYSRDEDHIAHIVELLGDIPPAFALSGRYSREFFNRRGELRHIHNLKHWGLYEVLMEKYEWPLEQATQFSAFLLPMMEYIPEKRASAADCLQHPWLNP

STK22D/TSSK1 = STK22D/TSSK1 (Homo sapiens (Human), UniProt Q9BXA7); test: Kinome-wide profiling; type: biochemical; conditions: read-out: % Residual Activity (mean)
MEKK2 = MEKK2 (Homo sapiens (Human), UniProt Q9Y2U5); test: Kinome-wide profiling; type: biochemical; conditions: read-out: % Residual Activity (mean)
MEKK2, sequence (Q9Y2U5 whole entry): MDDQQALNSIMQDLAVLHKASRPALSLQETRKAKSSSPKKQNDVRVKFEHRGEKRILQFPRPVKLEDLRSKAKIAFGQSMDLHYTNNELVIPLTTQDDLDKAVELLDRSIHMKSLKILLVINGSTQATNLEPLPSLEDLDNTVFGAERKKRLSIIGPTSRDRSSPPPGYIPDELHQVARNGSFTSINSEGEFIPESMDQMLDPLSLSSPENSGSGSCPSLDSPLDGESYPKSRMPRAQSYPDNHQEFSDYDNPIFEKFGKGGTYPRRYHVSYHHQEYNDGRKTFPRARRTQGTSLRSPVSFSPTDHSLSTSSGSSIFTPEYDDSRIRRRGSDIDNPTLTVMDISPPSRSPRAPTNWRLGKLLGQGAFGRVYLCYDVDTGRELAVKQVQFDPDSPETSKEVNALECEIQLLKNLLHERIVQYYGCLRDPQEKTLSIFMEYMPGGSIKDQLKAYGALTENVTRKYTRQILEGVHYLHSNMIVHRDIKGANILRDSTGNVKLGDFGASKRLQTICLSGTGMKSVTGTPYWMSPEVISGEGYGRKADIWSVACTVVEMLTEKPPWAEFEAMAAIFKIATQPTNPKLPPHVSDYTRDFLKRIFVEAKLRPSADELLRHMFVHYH

**Q.** With CCn1cnc2c(NCc3ccc(-c4ccccn4)nc3)nc(-c3ccc(N)nc3)nc21 [Example 53, N-([2,2′-bipyridin]-5-ylmethyl)-2-(6-aminopyridin-3-yl)-9-ethyl-9H-purin-6-amine] as the compound, how does the remaining activity at 10 µM (P38a/MAPK14) read?
**A.** 84.2%

**Q.** And the remaining activity at 10 µM (PRKX)?
**A.** 79.2%

**Q.** And the remaining activity at 10 µM (FGFR1)?
**A.** 28.8%

**Q.** What about the remaining activity at 10 µM (BRSK2) of the same compound?
**A.** 97.5%

**Q.** What about the remaining activity at 10 µM (BRSK1) of the same compound?
**A.** 92.8%

**Q.** What about the remaining activity at 10 µM (DYRK1B) of the same compound?
**A.** 3.19%

**Q.** What about the remaining activity at 10 µM (CDK6/cyclin D3) of the same compound?
**A.** 12.9%

**Q.** And the remaining activity at 10 µM (GSK3b)?
**A.** 5.76%

**Q.** What about the remaining activity at 10 µM (DDR1) of the same compound?
**A.** 50.2%

**Q.** What about the remaining activity at 10 µM (IRR/INSRR) of the same compound?
**A.** 31.1%

**Q.** What about the remaining activity at 10 µM (MEKK3) of the same compound?
**A.** 94%

**Q.** What about the remaining activity at 10 µM (CDK4/cyclin D2) of the same compound?
**A.** 21.8%

**Q.** And the remaining activity at 10 µM (GSK3a)?
**A.** 10.6%

**Q.** What about the remaining activity at 10 µM (IRAK4) of the same compound?
**A.** 94.8%

**Q.** And the remaining activity at 10 µM (CDC7/DBF4)?
**A.** 98.2%

**Q.** And the remaining activity at 10 µM (DCAMKL2)?
**A.** 55%

**Q.** What about the remaining activity at 10 µM (IKKe/IKBKE) of the same compound?
**A.** 80.1%

**Q.** What about the remaining activity at 10 µM (MKK4) of the same compound?
**A.** 96.4%

**Q.** And the remaining activity at 10 µM (BLK)?
**A.** 66.8%

**Q.** What about the remaining activity at 10 µM (RSK4) of the same compound?
**A.** 54.2%

**Q.** What about the remaining activity at 10 µM (SGK2) of the same compound?
**A.** 84.7%

**Q.** And the activity at 10 µM (CYP2C9)?
**A.** 57.9%

**Q.** What about the activity at 10 µM (CYP2C19) of the same compound?
**A.** 68.1%

**Q.** And the activity at 10 µM (CYP2D6)?
**A.** 81%

**Q.** And the activity at 10 µM (CYP3A4)?
**A.** 43%

**Q.** And the remaining activity at 10 µM (CLK4)?
**A.** 28.7%

**Q.** And the remaining activity at 10 µM (SIK2)?
**A.** 35.9%

**Q.** What about the remaining activity at 10 µM (ROCK1) of the same compound?
**A.** 97.2%

**Q.** And the remaining activity at 10 µM (ULK1)?
**A.** 70.3%

**Q.** What about the remaining activity at 10 µM (PIM1) of the same compound?
**A.** 97.8%

**Q.** And the remaining activity at 10 µM (CDK7/cyclin H)?
**A.** 3.81%

**Q.** And the remaining activity at 10 µM (PHKg2)?
**A.** 56.9%

**Q.** And the remaining activity at 10 µM (GRK6)?
**A.** 80.6%

**Q.** What about the remaining activity at 10 µM (MSSK1/STK23) of the same compound?
**A.** 82.8%

**Q.** And the remaining activity at 10 µM (STK22D/TSSK1)?
**A.** 38%

**Q.** And the remaining activity at 10 µM (MEKK2)?
**A.** 90%
